pIC50, pKd: −log10 of the molar value.
Key:
[1] = target: MTAN activity in V. cholerae N16961 cells (Vibrio cholerae serotype O1, UniProt Q9KPI8)
human MTAP = human MTAP (Homo sapiens, UniProt Q13126); settings: read-out: affinity for purified human MTAP; cited from earlier work
[2] = system: autoinducer production by V. cholerae N16961; assay: microbe, parasite or virus in culture; settings: Vibrio cholerae, read-out: AI Inhibition IC50, BB170 (ai1−ai2+)
EcMTAN = EcMTAN (Escherichia coli, UniProt P0AF12); settings: purified EcMTAN; cited from earlier work
VcMTAN = target: T1, VcMTAN (Vibrio cholerae serotype O1, UniProt Q9KPI8); assay: Inhibition of purified MTAN activity (xanthine oxidase-coupled assay); assay type: biochemical; settings: ratio of dissociation constants of the inhibitor pair
T1 construct: residues 1-230 for each monomer of VcMTAN in the asymmetric unit; The largest part of the N-terminal 6-His tag and the last C-terminal residue, 231; made in house; host or cells: E. coli BL21 Star (pBAD-DEST49)
T1 sequence (Q9KPI8 1-231): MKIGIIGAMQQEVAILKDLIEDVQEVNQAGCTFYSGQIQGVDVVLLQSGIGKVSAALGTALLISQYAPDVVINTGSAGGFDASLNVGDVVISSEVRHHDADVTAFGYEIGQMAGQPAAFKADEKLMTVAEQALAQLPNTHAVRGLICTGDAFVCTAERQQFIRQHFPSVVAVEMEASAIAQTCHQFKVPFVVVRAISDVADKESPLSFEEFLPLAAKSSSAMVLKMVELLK
Description: Inhibition of purified MTAN activity. […] Reactions were monitored for 2 hours at 25° C. on a Cary 300 Bio UV-Vis spectrophotometer. Inhibition constants were obtained by fitting the data to the following expression for competitive inhibition using KaleidaGraph 3.6 (Synergy Software, Reading, Pa.):
where νs′ and νs are steady state rates in the presence, and absence of inhibitor, respectively; Km is the Michaelis constant for substrate MTA which was obtained as described above; [S] and [I] are the concentrations of MTA and inhibitor, respectively. If the concentration of inhibitor is smaller than 10-fold concentration of enzymes, the following correction was then applied:

Sequence of EcMTAN (P0AF12 whole entry): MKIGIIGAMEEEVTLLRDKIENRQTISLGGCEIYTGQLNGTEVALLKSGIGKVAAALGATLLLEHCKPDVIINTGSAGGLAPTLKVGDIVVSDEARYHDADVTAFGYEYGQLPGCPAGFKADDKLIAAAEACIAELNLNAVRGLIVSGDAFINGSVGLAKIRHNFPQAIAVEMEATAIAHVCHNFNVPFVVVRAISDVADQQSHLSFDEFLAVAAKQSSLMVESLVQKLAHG
Sequence of human MTAP (Q13126 whole entry): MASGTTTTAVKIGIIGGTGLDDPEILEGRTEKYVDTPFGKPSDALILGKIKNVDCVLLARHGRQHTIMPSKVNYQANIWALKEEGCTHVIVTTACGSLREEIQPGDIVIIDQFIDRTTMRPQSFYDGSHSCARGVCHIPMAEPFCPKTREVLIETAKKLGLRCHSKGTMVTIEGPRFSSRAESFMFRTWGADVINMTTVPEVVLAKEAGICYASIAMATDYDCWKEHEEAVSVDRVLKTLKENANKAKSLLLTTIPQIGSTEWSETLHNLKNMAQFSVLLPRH

For `CSCC1CN(Cc2c[nH]c3c(N)ncnc23)CC1O` (stereo not shown) [MT-DADMe-ImmA, 5′-methylthio-(MT-) DADMe-ImmucillinA], the “increase of cellular IC50 above Ki* (diffusion barrier)” value [1] is given as about 500 fold, the pKd (human MTAP) is given as 10.07 and the pIC50 [2] is given as 9.03.

For `CCCCSCC1CN(Cc2c[nH]c3c(N)ncnc23)CC1O` (stereo not shown) [BuT-DADMe-ImmA, 5′-butylthio-(BuT-)DADMe-ImmucillinA], the pIC50 [2] was 8.85.

`CCSCC1CN(Cc2c[nH]c3c(N)ncnc23)CC1O` (stereo not shown) [EtT-DADMe-ImmA, 5′-ethylthio-(EtT-) DADMe-ImmucillinA] showed a pIC50 [2] of 7.96.

For `Nc1ncnc2c(CN3CC(O)C(CSc4ccc(Cl)cc4)C3)c[nH]c12` (stereo not shown) [para-chloro-phenylthio-DADMe-ImmA], the Km/Ki (EcMTAN) is given as ~10^8.

For `CSC[C@H]1N[C@@H](c2c[nH]c3c(N)ncnc23)[C@H](O)[C@@H]1O` [MT-ImmA, 5′-methylthio-ImmucillinA], the KImmA/KDADMe-ImmA (VcMTAN) was 135.

Reference: patent US20110190265A1, “METHODS AND COMPOSITIONS FOR TREATING BACTERIAL INFECTIONS BY INHIBITING QUORUM SENSING” (priority 2008, published 2011)
